Experimental data reported in publication PMC11514582, “Leveraging the Aggregated Protein Dye YAT2150 for Malaria Chemotherapy” (Pharmaceutics, 2024).

Tests used:
[1] = Cytotoxicity assay in HEP-G2 (MTT); assay type: cell-based; details: human, Hep-G2 cells, read-out: HEP-G2 inhibition (CC50)
Procedure: (§1) THP-1 human acute monocytic leukemia cells and NCI-H460 human lung carcinoma cells were grown in RPMI supplemented with 10% FBS. Hep-G2 human hepatocellular carcinoma cells were cultured in Eagle’s minimum essential medium (EMEM) supplemented with 10% FBS. A2780 human ovarian carcinoma cells were grown in RPMI supplemented with 10% FBS and 2 mM L-glutamine. MCF-7 human breast adenocarcinoma cells were cultured in EMEM containing 2 mM L-glutamine and Earle’s balanced salt solution adjusted with 1.5 g/L sodium bicarbonate, 0.1 mM non-essential amino acids, and 1 mM sodium pyruvate and supplemented with 10% FBS. […] Except for Caco-2 and HUVEC, inhibition of cell growth was evaluated using a protocol based on monitoring the transformation into formazan of the tetrazolium salt of MTT (3-(4,5-dimethylthiazol-2-yl)-2,5-diphenyltretrazolium bromide) by metabolically active cells. […] After 96 further h of incubation in the same conditions, 10 µL of a 5 mg/mL MTT solution in PBS was added to each sample, and the incubation was resumed for another 4 h. […] The absorbance measurement range was framed between one sample containing 4000 cells in plain growth medium (to determine the stable cell concentration) and another sample containing an equal cell number in growth medium supplemented with growth factors (to measure the maximum cell growth at 96 h).

[2] = Cytotoxicity assay in A2780 (MTT); assay type: cell-based; details: human, A2780 cells, read-out: A2780 inhibition (CC50)
Procedure: as §1

[3] = Cytotoxicity across seven human cell lines; assay type: cell-based; details: range over cell types, read-out: CC50 in seven different human cell lines
Procedure: THP-1 human acute monocytic leukemia cells and NCI-H460 human lung carcinoma cells were grown in RPMI supplemented with 10% FBS. Hep-G2 human hepatocellular carcinoma cells were cultured in Eagle’s minimum essential medium (EMEM) supplemented with 10% FBS. A2780 human ovarian carcinoma cells were grown in RPMI supplemented with 10% FBS and 2 mM L-glutamine. MCF-7 human breast adenocarcinoma cells were cultured in EMEM containing 2 mM L-glutamine and Earle’s balanced salt solution adjusted with 1.5 g/L sodium bicarbonate, 0.1 mM non-essential amino acids, and 1 mM sodium pyruvate and supplemented with 10% FBS. […] Except for Caco-2 and HUVEC, inhibition of cell growth was evaluated using a protocol based on monitoring the transformation into formazan of the tetrazolium salt of MTT (3-(4,5-dimethylthiazol-2-yl)-2,5-diphenyltretrazolium bromide) by metabolically active cells. […] The incubation was continued for an additional 12 to 14 h, and absorbance was measured at 595 nm (Tecan M1000 Infinite® Pro, Tecan Trading AG, Männedorf, Switzerland). The absorbance measurement range was framed between one sample containing 4000 cells in plain growth medium (to determine the stable cell concentration) and another sample containing an equal cell number in growth medium supplemented with growth factors (to measure the maximum cell growth at 96 h). […]

[4] = Human plasma protein binding (Rapid Equilibrium Dialysis); assay type: in vitro ADME; details: pH 7.2, RED, 4 h at 37 °C
Procedure: The assay was carried out by Rapid Equilibrium Dialysis (RED). The compounds were dissolved at 5 μM in human plasma and added to the corresponding insert of the RED device (Thermo Fisher Scientific, Inc., Waltham, MA, USA), and dialysis was performed for 4 h at 37 °C in […], 25 mM tris-HCl, pH 7.2 (Tris BupH^TM, Thermo Fisher Scientific, Inc.). Then, 50-µL aliquots from each chamber were transferred to empty vials, to which 50 µL of dialysis buffer was added. As control, 50 µL of plasma was mixed with 50 µL of buffer. Three hundred µL of acetonitrile was added to all the samples, which were analyzed by ultra-performance liquid chromatography with tandem mass spectrometry as previously described.

3D7 P. falciparum = assay: Parasite-killing profile (parasite viability after 10x IC50); assay type: cell-based, Plasmodium falciparum; details: treatment for 24 h with 10× IC50
Procedure: After the treatment, the drug was removed and the culture diluted 1/3 and re-established in RBCs labeled with carboxyfluorescein diacetate succinimidyl ester (CFDA-SE, Life Technologies) to a 2% hematocrit in order to evaluate the reinfection capacity of the treated parasites. CFDA-SE-labelled erythrocytes were prepared by incubating 1% hematocrit in RPMI containing 10 μM CFDA-SE at 37 °C for 30 min, after which they were washed and maintained at 50% hematocrit at 4 °C for up to 24 h before use. Parasites were grown for 48 h, a complete replication cycle, in standard culturing conditions (5% O2, 5% CO2, and 90% N2 at 37 °C). After this incubation time, parasitemia was assessed by two-color flow cytometry (Attune NxT Flow Cytometer, Thermo Fisher Scientific, Inc.) using Hoechst 33342 to stain nuclei. Hoechst 33342 fluorescence signal was detected by exciting samples at 405 nm and collecting the emission with a 440/50-nm bandpass filter (VL1), whereas CFDA-SE was excited at 488 nm and detected with a 530/30 nm filter. Samples were analyzed using the Attune NxT software package 3.2.1, and parasite viability was plotted as the percentage of infected CFDA-SE-stained erythrocytes, using as reference untreated samples of the initial inoculum after 48 h of incubation with labeled erythrocytes.

[5] = test system: P. falciparum asexual blood stages; details: CC50 in HUVEC / IC50 two-hour incubation in P. falciparum
Procedure: The asexual blood stages of P. falciparum parasites of the 3D7 strain (Malaria Research and Reference Reagent Resource Center, Manassas, VA, USA) were cultured in group B human RBCs at 3% hematocrit, which was kept throughout the experiments, and incubated in RPMIc. Parasites were maintained at 37 °C under an atmosphere of 5% O2, 5% CO2, and 90% N2. […] The parasites were then cultured under standard conditions for 48 h, allowing for a complete replication cycle. After the incubation period, 3 µL of culture from each well was mixed with 197 µL of PBS containing 0.1 µM Syto 11 (Thermo Fisher Scientific, Inc.) to obtain a final concentration of 1 × 10^6 to 10 × 10^6 cells/mL. Parasitemia levels were measured using an LSRFortessa flow cytometer equipped with a standard configuration of four lasers and 20 parameters. Single-cell populations were identified on a forward-side scatter plot. […] The inhibition data were then transformed using sigmoidal fitting to determine IC50.
For stage arrest assays, P. falciparum cultures were tightly synchronized in schizont stages by repeated treatment with 70% Percoll (GE Healthcare, Chicago, IL, USA) [26, 27]. […] Pictures were taken with a Nikon Eclipse 50i microscope equipped with a DS-Fi1 camera (Nikon Corporation, Tokyo, Japan).

[6] = cited from earlier work
[7] = human hepatocytes; cited from earlier work

`CCN(CC)c1ccc(/C=C/c2cc[n+](CCCCCCCCCC[n+]3ccc(/C=C/c4ccc(N(CC)CC)cc4)c(C)c3)cc2C)cc1` [YAT2150] showed a CC50 at 96 h [1] of 2540 ± 80 nM, a CC50 at 96 h [2] of 590 ± 160 nM and a CC50 [3] of 590 to 18200 nM. For the same compound, the fraction unbound at 4 h, 5 μM [4] was 0.003, the parasite survival (3D7 P. falciparum) was 8.5% and the “SI (CC50/IC50)” value [5] was about 66. For the same compound, the “Microsomal stability (% remaining after 1 h)” value ([6]; human microsomes, 37 °C) was 54.6 ^7%, the “Microsomal stability T1/2” value ([6]; human, microsomes) was 80.5 ^7 min and the “Hepatocyte stability (% remaining after 2 h)” value [7] was 70.4 ^7%. For the same compound, the “Hepatocyte stability T1/2” value [7] was 277.3 ^7 min.
